Results published in patent US20110217290A1, “TREATMENT AND/OR PREVENTION OF PEANUT INDUCED ANAPHYLAXIS” (priority 2009, published 2011).

What was measured:
albumin in the PL fluid = assay: Vascular leakage: albumin content in PL fluid after peanut challenge; type: in vivo, C57BL/6 mice; conditions: PAF-R antagonist; following peanut challenge
Description: During the course of a systemic anaphylactic reaction vasodilatation and hypotension are often associated with excessive vascular permeability and fluid extravasations.

[1] = tested on: cysteinyl leukotrienes (CysLTC); assay: Plasma cysteinyl leukotrienes after peanut challenge (enzyme immunoassay); type: in vivo, C57BL/6 mice
Experimental: Blood from control and sensitized mice was collected in K2-EDTA containing tubes at the indicated time points following i.p challenge with CPE and plasma was analyzed for (E) histamine and (F) CysLTC levels. Histamine and leukotriene levels were determined in plasma at different time points following challenge using enzyme immunoassay kits (Beckman Coulter Canada, Inc, Mississauga, and Cedarlane Laboratories Ltd, Hornby, Canada, respectively) according to the manufacture's specifications. Plasma was obtained using K2-EDTA containing tubes (BD Biosciences, Mississauga, ON, Canada). Graphs show mean values±SEM from three to five independent experiments; n=8-12 mice per group. * P<0.05 relative to control. The kinetics of mediator production is distinct. […] These findings indicate that oral sensitization with peanut results in a significant increase in the number of peritoneal mast cells and FcεRI surface expression likely contributing to the massive release of vasoactive mediators following challenge with peanut.
(for H1 receptor and H2 receptor, respectively) i.v. 30 minutes prior to CPE challenge. […] Histamine (C) and (G) and leukotriene (D) and (H) levels from each of the experimental groups above were analyzed in plasma 40 min following CPE challenge. […]

peanut-sensitized mice [2] = tested on: peanut-sensitized mice
peanut-sensitized mice [3] = assay: Mathematical model grading severity of the anaphylactic response (AU39° C., AU35° C., events under 35° C.); type: in vivo, C57BL/6 mice
Experimental: In an effort to more comprehensively grade the anaphylactic response, three measures of severitywere utilized: global, moderate and life-threatening severity. To facilitate the assessment of severity, a mathematical model that describes the overall behavior of the anaphylactic response for each experimental group was developed. Using mean experimental data for untreated mice, an equation was derived that represents the pattern in core temperature up to 120 minutes following challenge. The same equation was then fit to the other experimental group (mice treated with PAF-R antagonist) to derive a numerical coefficient that accurately depicts the respective response. (FIG. 3 E). These equations were subsequently used to generate modeled data. Actual and modeled data were validated through linear regression, yielding R^2 values of greater than 0.99 for both untreated and treated groups (FIG. 3 F). Thus, the response for each experimental group can be expressed with a mathematical representation that can be used to assess the overall degree of the anaphylactic response. Global severity was defined as the area of the response under 39° C. (AU39° C.), while life-threatening severity was depicted as the area of the response under 35° C. (AU35° C.; FIG. 3 F). Moderate severity was deemed as the difference between global and life-threatening severity (AU39° C.-AU35° C.; FIG. 3 F). Given that these areas (i.e. AU39° C. and AU35° C.) were calculated using mean temperatures at each time point, they describe the overall trend of the response. […] In other words, the AU35° C. is not representative of those mice that experienced life-threatening anaphylaxis exclusively but rather encompasses the response of the entire population. Therefore, the concept of life-threatening severity was modified to consider only the number of mice whose temperature fell below 35° C. at any time point (expressed as ‘events under 35° C.’). In addition, the duration of life-threatening conditions was determined by calculating the time at which each response was below 35° C. (FIG. 3 F).
The potential adjuvant effect of antihistamines in the treatment of PIA was assessed. Peanut-sensitized mice were treated with a PAF-R antagonist along with H1 and H2 receptor antagonists and monitored them for 120 min following challenge. FIG. 4 illustrates that concomitant treatment with PAF-R antagonist and anti-histamines prevents life-threatening and prolonged peanut-induced anaphylactic reactions. […] One week after the last sensitization, separate groups of mice were treated as follows: (A) appropriate drug vehicle (B) PAF-R antagonist [50 mg/Kg], ABT-491] orally 1 h prior to CPE challenge. (C) histamine receptor antagonists mepyramine [3 mg/kg] and cimetadine [10 mg/Kg] (for H1 receptor and H2 receptor, respectively) i.v. 30 min prior to CPE challenge (D) The last group of mice was administered the treatments described in B and C concurrently. Pooled data from two independent experiments are shown (n=6/experiment). *, P<0.05 relative to time 0. ns, not significant. […] (E) The accuracy of the model was quantified using linear regression. Using the equation from the model, global severity was defined as the area between the response and 39 (area under 39° C. (AU39° C.)) while life-threatening severity was defined as the area of the response under 35° C. (AU35° C.). Since these areas were calculated using mean temperatures at each time point, they describe the overall trend of the response. […]

C#Cc1cccc2c1c(C(=O)c1ccc(Cn3c(C)nc4cnccc43)c(F)c1)cn2C(=O)N(C)C [ABT-491]
decrease in the content of albumin in the PL fluid of treated mice compared to untreated mice (vascular leakage) (albumin in the PL fluid): 57% | levels of Cysts in plasma following challenge with peanut ([1]; PAF-R antagonist treated, untreated 570.2±237.3, mean±SEM): 187.3 ± 96.9 pg/mL | development of seizures (convulsions) (peanut-sensitized mice [2]; ABT-491 50 mg/Kg orally 1 h prior to challenge, 15% of untreated mice developed convulsions): no seizures were observed | recovery from the anaphylactic reaction (peanut-sensitized mice [2]; ABT-491 50 mg/Kg orally 1 h prior to challenge, monitored 120 min, FIGS. 3 C and D): significantly accelerated | treated mice that developed either no or mild anaphylactic reactions (peanut-sensitized mice [2]; ABT-491 50 mg/Kg orally 1 h prior to challenge, no: score 0, 37.5-40° C., mild: score ≦2, 34.5-37.5° C.): ~50% | mice that reached recovery temperature (37° C.) within 120 min following challenge (peanut-sensitized mice [2]; ABT-491 50 mg/Kg orally 1 h prior to challenge, untreated 43%, FIG. 3 C): 83% | mice that dropped their core temperature by more than 4° C. (peanut-sensitized mice [2]; ABT-491 50 mg/Kg orally 1 h prior to challenge, untreated 87%): 48% | mice that died within 48 h following challenge (peanut-sensitized mice [2]; ABT-491 50 mg/Kg orally 1 h prior to challenge, untreated approximately 20%): none | mice that experienced severe hypothermia 120 min following challenge (peanut-sensitized mice [2]; ABT-491 50 mg/Kg orally 1 h prior to challenge, untreated approximately 30%): 9% | decrease in global severity (AU39° C.) (peanut-sensitized mice [3]; PAF-R antagonist 50 mg/Kg orally vs. untreated, up to 120 min following challenge, FIG. 3 F): approximately 50% | less time under life-threatening conditions (below 35° C.) compared to untreated mice (peanut-sensitized mice [3]; PAF-R antagonist 50 mg/Kg orally, FIG. 3 F): approximately 75% | number of 'events under 35° C.' (peanut-sensitized mice [3]; PAF-R antagonist 50 mg/Kg orally, untreated 133, FIG. 3 F): 41 | number of 'events under 35° C.' (peanut-sensitized mice [3]; treatments as, 120 min, untreated 75, FIG. 4 E): 16 | effect on moderate severity (AU39° C.-AU35° C.) (peanut-sensitized mice [3]; treatments as, up to 120 min, FIG. 4 E): partial effect

CC(c1cc2ccccc2s1)N(O)C(N)=O (stereo not shown) [Zileuton]
leukotrienes in plasma from treated mice ([1]; Zileuton 50 mg/Kg oral, 12 h and 1 h prior to challenge, plasma 40 min following CPE challenge, FIG. 2 D): nearly undetected | impact on the extent and/or kinetics of peanut-induced anaphylactic reactions (peanut-sensitized mice [2]; Zileuton 50 mg/Kg oral gavage twice, 12 h and 1 h prior to i.p. CPE challenge, 40 min, FIGS. 2 A and B): did not have an impact
